{"source": "patent US11925653B2", "about": "“Combination therapy effective against microorganisms, including drug resistant microorganisms” (Fleurir ABX LLC, priority 2021, dated 2024)", "assay_in_all_cases": "minimum bactericidal concentration (MBC) assay", "type_in_all_cases": "cell-based", "key": {"Escherichia coli": {"tested_on": "Escherichia coli", "experimental": "(§1) Synergy was also assayed by both agar, and broth microdilution methods. Additional information gathered about the synergistic effect of the described composition as a combination therapy was evaluated by determining bacterial killing effect. This was performed as described above for the checkerboard synergy assay with the exception that the bacterial count in an assay well was determined by plating at the beginning of the experiment, and identifying at the end of incubation for an assay well where growth was inhibited. This has been adapted from both the broth microdilution, and the bactericidal assays (Clinical Laboratory Standards Institute (1999) Methods for Determining Bactericidal Activity of Antimicrobial Agents; Approved Guideline M26-A, Vol. 19, No. 18). […] The value derived was the reduction in bacterial numbers (viability) for the compounds when alone versus the described composition comprising the combined antibiotics.\n(§2) As there is no published definition for bactericidal synergy, MIC metric was utilized."}, "Staphylococcus aureus": {"tested_on": "Staphylococcus aureus", "experimental": "as §1, §2"}, "Enterococcus faecalis": {"tested_on": "Enterococcus faecalis", "experimental": "as §1, §2"}, "Pseudomonas aeruginosa": {"tested_on": "Pseudomonas aeruginosa", "experimental": "as §1, §2"}}}
{"molecule": "C[C@@H]1O[C@@H]1P(=O)(O)O", "note": "[Fosfomycin, cis-1,2-epoxypropyl phosphonic acid]", "values": [{"measurement": "MBC, lowest concentration providing a >3-log reduction within 24 hours (Combo as F/DP/SM; second compound as DP/SM)", "setting": "Escherichia coli; Escherichia coli (854535)", "value": 256, "unit": "μg/ml"}, {"measurement": "MBC, lowest concentration providing a >3-log reduction within 24 hours (Combo as F/DP/SM; second compound as DP/SM)", "setting": "Escherichia coli; Escherichia coli (928017)", "value": 256, "unit": "μg/ml"}, {"measurement": "MBC, lowest concentration providing a >3-log reduction within 24 hours (Combo as F/DP/SM; second compound as DP/SM)", "setting": "Escherichia coli; Escherichia coli (ATCC 25922)", "value": 32, "unit": "μg/ml"}, {"measurement": "MBC, lowest concentration providing a >3-log reduction within 24 hours (Combo as F/DP/SM; second compound as DP/SM)", "setting": "Staphylococcus aureus; Staphylococcus aureus (918019 - MRSA)", "value": 128, "unit": "μg/ml"}, {"measurement": "MBC, lowest concentration providing a >3-log reduction within 24 hours (Combo as F/DP/SM; second compound as DP/SM)", "setting": "Staphylococcus aureus; Staphylococcus aureus (959797 - MRSA)", "value": 64, "unit": "μg/ml"}, {"measurement": "MBC, lowest concentration providing a >3-log reduction within 24 hours (Combo as F/DP/SM; second compound as DP/SM)", "setting": "Staphylococcus aureus; Staphylococcus aureus (ATCC 29213 - MSSA)", "value": 128, "unit": "μg/ml"}, {"measurement": "MBC, lowest concentration providing a >3-log reduction within 24 hours (Combo as F/DP/SM; second compound as DP/SM)", "setting": "Staphylococcus aureus; Staphylococcus aureus (ATCC 33591) (MRSA)", "value": 256, "unit": "μg/ml"}, {"measurement": "MBC, lowest concentration providing a >3-log reduction within 24 hours (Combo as F/DP/SM; second compound as DP/SM)", "setting": "Staphylococcus aureus; Staphylococcus aureus (MGH-04)", "value": 256, "unit": "μg/ml"}, {"measurement": "MBC, lowest concentration providing a >3-log reduction within 24 hours (Combo as F/DP/SM; second compound as DP/SM)", "setting": "Staphylococcus aureus; Staphylococcus aureus (USA-300 CDC- MRSA)", "value": 256, "unit": "μg/ml"}, {"measurement": "MBC, lowest concentration providing a >3-log reduction within 24 hours (Combo as F/DP/SM; second compound as DP/SM)", "setting": "Enterococcus faecalis; Enterococcus faecalis (ATCC 29212)", "value": "≥512", "unit": "μg/ml"}, {"measurement": "MBC, lowest concentration providing a >3-log reduction within 24 hours (Combo as F/DP/SM; second compound as DP/SM)", "setting": "Enterococcus faecalis; Enterococcus faecalis (MGH-01) (VanA)", "value": "≥512", "unit": "μg/ml"}, {"measurement": "MBC, lowest concentration providing a >3-log reduction within 24 hours (Combo as F/DP/SM; second compound as DP/SM)", "setting": "Enterococcus faecalis; Enterococcus faecalis (MGH-06)", "value": 512, "unit": "μg/ml"}, {"measurement": "MBC, lowest concentration providing a >3-log reduction within 24 hours (Combo as F/DP/SM; second compound as DP/SM)", "setting": "Pseudomonas aeruginosa; Pseudomonas aeruginosa (924190)", "value": ">512", "unit": "μg/ml"}, {"measurement": "MBC, lowest concentration providing a >3-log reduction within 24 hours (Combo as F/DP/SM; second compound as DP/SM)", "setting": "Pseudomonas aeruginosa; Pseudomonas aeruginosa (985543)", "value": 512, "unit": "μg/ml"}]}
